In brackets after ≈: the same amount, converted by molar mass.
Legend:
[1] = read-out: Kd of vancomycin:D-Ala-D-Ala complex; cited from earlier work
[2] = system: human red blood cells (hRBC); assay: Hemolytic activity; assay type: cell-based; conditions: 0.25% hRBC, 37° C., 1 h
Description: Fresh red human blood cells (hRBC) were washed and centrifuged at 3000 rpm for 5 min at 4° C. with PBS until a clear solution was obtained. Two-fold serial dilutions of each peptide in PBS from 0.5 μg/ml to 256 μg/ml were incubated with 0.25% (v/v) hRBC suspension at 37° C. for 1 h, and then centrifuged for 5 min at 3500 rpm in 96-well plate. 50 μl of the supernatant from each well was diluted with 50 μl pure water, and the OD at 415 nm was measured using microplate reader. Melittin at the same concentrations (200 μg/ml for complete lysis) was used as a positive control. Percent hemolysis was calculated according to the equation: […]
where complete hemolysis was defined as the average hemolysis of all wells containing a final concentration of melittin ranging from 50 to 400 μg/ml. Experiments were performed as triplicates at different days.

[3] = system: low level vancomycin resistant E. faecium (vanB) ATCC 51299; assay: microbe, parasite or virus in culture
Description: (§1) The L-peptides identified from five different phage display libraries were catalogued as described previously and selected sequences were synthesized in D-enantiomeric form by SPPS for further investigation in several biological assays.
(§2) MICs were determined according to a 96-well microdilution protocol outlined by the Clinical and Laboratory Standard Institute (CLSI) guideline with modifications for peptide antibiotics reported by Wiegand et al.^35 Two-fold serial peptide dilutions were performed to go from 2560 μg/ml to 5 μg/ml in0.2% BSA and 0.01% acetic acid buffer in 96-well polypropylene plates (COSTAR, #3879). Dilution of bacterial suspensions (1:200) of different bacterial strains that were grown until 0.5 McFarland standard were prepared to obtain a final inoculum concentration of 8×10^5 CFU/ml in Mueller-Hinton broth.

[4] = system: Methicillin-resistant S. aureus (MRSA) ATCC 43300; assay: microbe, parasite or virus in culture
Description: as §1, §2

[5] = system: E. coli ATCC 25992; assay: microbe, parasite or virus in culture
Description: as §1, §2

[6] = system: E. faecalis ATCC 29121; assay: microbe, parasite or virus in culture
Description: as §1, §2

[7] = system: B. subtilis ATCC 6633; assay: microbe, parasite or virus in culture
Description: as §1, §2

[8] = system: S. aureus ATCC 6538; assay: microbe, parasite or virus in culture
Description: as §1, §2

[9] = system: high level vancomycin resistant E. faecium (vanA) ATCC 51559; assay: microbe, parasite or virus in culture
Description: as §1, §2

[10] = system: HeLa cells; assay: Mammalian cytotoxicity (MTT) assay; conditions: 24 h, b121: concentrations up to 256 μg/ml
Description: Cervical cancer cells (HeLa) were cultured in Dulbecco's Modified Eagle's medium (DMEM) (Invitrogen #11995-073) supplemented with 10% bovine calf serum at 37° C., 5% CO2, and seeded (5×10^3 cells/well) in 96-well plate flat-bottomed plate for 24 h before the assay. […] After washing the cells with PBS, the cells were subjected to the standard yellow tetrazolium (3-(4,5-dimethylthiazol-2-yl)-2,5-diphenyltetrazolium bromide (MTT) assay protocol at final concentration of 0.5 mg/ml for 4 h in a humidified 5% CO2 atmosphere at 37° C. MTT solution was then aspirated, and the purple formazan crystals were resuspended in DMSO by incubation for 5 min at 37° C. The absorbance at 540 nm was then read using a microplate reader. Viability control (100% viability) was assigned to samples with only HeLa cells and DMEM media, 0% viability was assigned to samples with 1% added Triton-X-100 and no peptide. Experiments were performed as triplicates at different days.

[11] = relative to D-Ala-D-Ala precursor; cited from earlier work

## CN[C@H](CC(C)C)C(=O)N[C@H]1C(=O)N[C@@H](CC(N)=O)C(=O)N[C@H]2C(=O)N[C@H]3C(=O)N[C@H](C(=O)N[C@H](C(=O)O)c4cc(O)cc(O)c4-c4cc3ccc4O)[C@H](O)c3ccc(c(Cl)c3)Oc3cc2cc(c3O[C@@H]2O[C@H](CO)[C@@H](O)[C@H](O)[C@H]2O[C@H]2C[C@](C)(N)[C@H](O)[C@H](C)O2)Oc2ccc(cc2Cl)[C@H]1O [P1, Vancomycin, reference compound]
[1]
  Kd: ~1000 nM
[2]
  percentage hemolysis of hRBCs: 0%
[3]; Enterococcus faecium, ATCC51299 / VRE, read-out: MIC VRE (vanB)
  MIC: 32 µg/mL (≈ 22.1 µM)
[3]; Table 6, low level vancomycin resistant E. faecium ATCC51299
  MIC VRE (vanB): 32 µg/mL (≈ 22.1 µM)
[4]; Staphylococcus aureus, read-out: MIC MRSA
  MIC: 0.5 µg/mL (≈ 0.345 µM)
[4]; Table 6, MRSA ATCC43300
  MIC MRSA: 0.5 µg/mL (≈ 0.345 µM)
[5]; Escherichia coli, ATCC25992, read-out: MIC E. coli
  MIC: > 256 µg/mL
[5]; Table 6, E. Coli ATCC25992
  MIC E. coli: >256 µg/mL
[6]; Enterococcus faecalis, ATCC29121, read-out: MIC E. faecalis
  MIC: 1 µg/mL (≈ 0.69 µM)
[6]; Table 6, E. faecalis ATCC29121
  MIC E. faecalis: 1 µg/mL (≈ 0.69 µM)
[7]; Bacillus subtilis, ATCC6633, read-out: MIC B. subtilis
  MIC: 0.5 µg/mL (≈ 0.345 µM)
[7]; Table 6, B. subtilis ATCC6633
  MIC B. subtilis: 0.5 µg/mL (≈ 0.345 µM)
[8]; Staphylococcus aureus, ATCC6538, read-out: MIC S. aureus
  MIC: 0.5 µg/mL (≈ 0.345 µM)
[8]; Table 6, S. aureus ATCC6538
  MIC S. aureus: 0.5 µg/mL (≈ 0.345 µM)
[9]
  activity against vanA / high-level vancomycin-resistant strain: no activity
[9]; Enterococcus faecium, ATCC51559 / VRE, read-out: MIC VRE (vanA)
  MIC: > 256 µg/mL
[9]; Table 6, high level vancomycin resistant E. faecium ATCC51559
  MIC VRE (vanA): >256 µg/mL
[10]
  cytotoxicity on HeLa cells: non-toxic
[11]
  reduction of binding affinity on D-alanine to D-lactate substitution: ~1000 fold
